# Assay results reported in US4874856A, “3-(substituted)propenyl-7-(aminothiazolylacetamido) ceph-3-em-4-carboxylic acids and esters thereof” (Bristol-Myers Company, priority 1987, dated 1989).
# Experiments:
# [1] = tested on: Penicillin(PC)sensitive S. aureus; experiment: In vitro MIC, two-fold serial agar dilution in Mueller-Hinton agar, Gp-Ia strains; assay type: cell-based; settings: Staphylococcus aureus; GpIa, 5 strains; read-out: Geometric mean of MIC, GpIa
# Experimental: (§1) The in vitro antibacterial activity of the parent cephalosporanic acids of Formula I wherein R^4 is hydrogen is shown in Table 1 in terms of geometric mean of the Minimum Inhibitory Concentrations (MIC's) which were determined by the two-fold serial agar dilution method in Mueller-Hinton agar against 25 strains of test organisms in five groups.
# Gp-Ia: Penicillin(PC)sensitive S. aureus
# PCresistant S. aureus = experiment: In vitro MIC, two-fold serial agar dilution in Mueller-Hinton agar, GpIb strains; assay type: cell-based; settings: Staphylococcus aureus, 5 strains, read-out: Geometric mean of MIC, GpIb
# Experimental: as §1
# GpIb: PCresistant S. aureus
compound,measurement,setting,value
"C/C=C\C1=C(C(=O)O)N2C(=O)[C@@H](NC(=O)/C(=N\O)c3csc(N)n3)[C@H]2SC1 [Compound 29, 7β-[(Z)-2-(2-aminothiazol-4-yl)-2-(hydroxyimino)acetamido]-3-[(Z)-prop-1-en-1-yl]-3-cephem-4-carboxylic acid]",MIC,[1],0.2 µg/mL
same,MIC,PCresistant S. aureus,0.4 µg/mL
